Test system: chorioallantoic membrane
Experiment: hen's egg test on the chorioallantoic membrane (HET-CAM): protective effect against the irritant 2% sodium dodecylsulfate
Parameters: species or system hen's eggs, American White Leghorn (Shaver Starcross 288)
Details: for protective effect (in words): applied 5 min before 2% sodium dodecylsulfate, compared to distilled water, NaCl 0.05/0.5/1.0%, CaCl2 0.05/0.5/5%, sorbitol 0.01/0.1/1% by weight; for Response (x) after 30 s / Response (x) after 2 min / Response (x) after 5 min: rating 0 (no response) to 7 (coagulation), 0.2 ml aqueous test substance, 5 min later 0.2 ml 2% sodium dodecylsulfate; for Response (x) after 30 s: read after 30 s; for Response (x) after 2 min: read after 2 min; for Response (x) after 5 min: read after 5 min
Method: Evidence of the activity in terms of enhancing the skin's defenses against noxious agents was furnished in a hen's egg test on the chorioallantoic membrane (HET-CAM), an established predictional test for detecting the irritation potency for the skin and mucosa. For testing, eggs of the race “American White Leghorn” ([…] 288) were employed. The eggs were incubated for 9 d (start of incubation=day 1) in a small-size motor incubator having an automatic turning over device and an automatic moisturizing control (type […] GmbH) at 37±1° C. and 65±5% of relative humidity. At day 9, the eggs were transilluminated for detecting fertilization, the non-fertilized eggs were sorted out, the remaining eggs were placed upright with the blunt pole (air bubble) up and incubated for another 24 h without turning over. At day 10, the egg pole was removed with fine scissors and tweezers, and the chorioallantoic membrane exposed. The following items were tested: irritant effect of the combination of active substances and its components protective effect Thus, 0.2 ml each of the aqueous solution of the test substance was applied, and after an interval of 5 min, 0.2 ml of a 2% solution of the irritant sodium dodecylsulfate was applied. The outcome of the response was compared to the effect obtained with water (placebo) according to the following rating: 0 no response 1 hyperemia-slight 2 hyperemia-medium 3 hyperemia-strong 4 hemorrhage-isolated 5 hemorrhage-frequent 6 hemorrhage-massive 7 coagulation […]

| Compound | protective effect (in words) | Response (x) after 30 s | Response (x) after 2 min | Response (x) after 5 min |
| --- | --- | --- | --- | --- |
| OC[C@@H](O)[C@@H](O)[C@H](O)[C@@H](O)CO [sorbitol] | did not display any protective effects | – | – | – |
| [Ca+2].[Cl-].[Cl-] [CaCl2, calcium chloride] | did not display any protective effects | – | – | – |
| NC(N)=O [Comp. 3, urea] | display a skin protective activity | 2.8 | 3.6 | 4.0 |
| N#C[S-].[Na+] [Comp. 2, NaSCN] | display a skin protective activity | 2.8 | 3.1 | 3.8 |
| [Cl-].[Na+] [NaCl, sodium chloride] | did not display any protective effects | – | – | – |

Source: patent US6346258B1, “Physiological combination of active substances to enhance the skin's defenses against noxious agents” (priority 1997, dated 2002)
